Data published in patent publication US7858796B2, “Chemical compounds” (Glaxo Group Limited, priority 2004, dated 2010).

Test system: human monocyte stimulated cytokine production (TNF-α)
Test: Monocyte Assay (LPS-stimulated TNF-α production)
Format: cell-based
Details: human CD14+ monocytes, 200 ng/mL LPS, 24 hrs, TNF-α by ELISA
Method: Effect of IKK-β inhibition on human monocyte stimulated cytokine production was assessed as follows: Monocytes were isolated from heparinized whole blood by Ficoll gradient, followed by purification of CD14+ cells using MACS magnetic cell separation beads. Isolated monocytes were then adhered to 96-well culture plates at 1×10^6 cells/mL in RPMI 1640 10% FBS (JRH Biosciences, Lenexa Kans.) for 2 h. to further enrich the monocyte population. The media was then removed, cells washed once with RPMI 1640, and 0.125 mL RPMI 1640 10% FBS was added to the wells. Test compounds are added to the wells 30 minutes prior to stimulation with a final vehicle concentration of 0.1% DMSO. Monocytes were activated by the addition of 200 ng/mL endotoxin (LPS; E. coli serotype 026:B6) (Sigma, St. Louis, Mo.) and incubated for 24 hrs at 37 C. Cell-free supernates were analyzed by ELISA for TNF-α using Pharmingen matched pair Abs. Viability of the cells was determined by10% trypan blue exclusion.

Row | Structure (SMILES) | IC50 [µM]
1 | NCCS(=O)(=O)N1CCC(c2c[nH]c3c(C(N)=O)cc(-c4ccccc4)cc23)CC1 [Example 1, 3-{1-[(2-aminoethyl)sulfonyl]-4-piperidinyl}-5-phenyl-1H-indole-7-carboxamide] | < 10
2 | CN(C)CCS(=O)(=O)N1CCC(c2c[nH]c3c(C(N)=O)cc(-c4ccccc4)cc23)CC1 [Example 2, 3-(1-{[2-(dimethylamino)ethyl]sulfonyl}-4-piperidinyl)-5-phenyl-1H-indole-7-carboxamide] | < 10
3 | CN(C)CCCS(=O)(=O)N1CCC(c2c[nH]c3c(C(N)=O)cc(-c4ccccc4)cc23)CC1 [Example 3, 3-(1-{[3-(dimethylamino)propyl]sulfonyl}-4-piperidinyl)-5-phenyl-1H-indole-7-carboxamide] | < 10
4 | CN1CCN(CCCS(=O)(=O)N2CCC(c3c[nH]c4c(C(N)=O)cc(-c5ccccc5)cc34)CC2)CC1 [Example 4, 3-(1-{[3-(4-methyl-1-piperazinyl)propyl]sulfonyl}-4-piperidinyl)-5-phenyl-1H-indole-7-carboxamide] | < 10
5 | NC(=O)c1cc(-c2ccccc2)cc2c(C3CCN(S(=O)(=O)CCCN4CCCCC4)CC3)c[nH]c12 [Example 5, 5-phenyl-3-(1-{[3-(1-piperidinyl)propyl]sulfonyl}-4-piperidinyl)-1H-indole-7-carboxamide] | < 10
6 | NC(=O)c1cc(-c2ccccc2)cc2c(C3CCN(S(=O)(=O)CCCN4CCOCC4)CC3)c[nH]c12 [Example 6, 3-(1-{[3-(4-morpholinyl)propyl]sulfonyl}-4-piperidinyl)-5-phenyl-1H-indole-7-carboxamide] | < 10
7 | NC(=O)c1cc(-c2ccccc2)cc2c(C3CCN(S(=O)(=O)CCCN4CCCC4)CC3)c[nH]c12 [Example 7, 5-phenyl-3-(1-{[3-(1-pyrrolidinyl)propyl]sulfonyl}-4-piperidinyl)-1H-indole-7-carboxamide] | < 10
8 | NC(=O)c1cc(-c2ccsc2)cc2c(C3CCN(S(=O)(=O)CCCN4CCCC4)CC3)c[nH]c12 [Example 8, 3-(1-{[3-(1-pyrrolidinyl)propyl]sulfonyl}-4-piperidinyl)-5-(3-thienyl)-1H-indole-7-carboxamide] | < 10
9 | CN(C)CCCS(=O)(=O)N1CCC(c2c[nH]c3c(C(N)=O)cc(-c4ccsc4)cc23)CC1 [Example 9, 3-(1-{[3-(dimethylamino)propyl]sulfonyl}-4-piperidinyl)-5-(3-thienyl)-1H-indole-7-carboxamide] | < 10
10 | CN(C)CCCS(=O)(=O)N1CCC(c2c[nH]c3c(C(N)=O)cc(-c4cccs4)cc23)CC1 [Example 10, 3-(1-{[3-(dimethylamino)propyl]sulfonyl}-4-piperidinyl)-5-(2-thienyl)-1 indole-7-carboxamide] | < 10
11 | NC(=O)c1cc(-c2cccs2)cc2c(C3CCN(S(=O)(=O)CCCN4CCCC4)CC3)c[nH]c12 [Example 11, 3-(1-{[3-(1-pyrrolidinyl)propyl]sulfonyl}-4-piperidinyl)-5-(2-thienyl)-1 indole-7-carboxamide] | < 10
12 | CC1CCCN1CCCS(=O)(=O)N1CCC(c2c[nH]c3c(C(N)=O)cc(-c4cccs4)cc23)CC1 (stereo not drawn) [Example 12, 3-(1-{[3-(2-methyl-1-pyrrolidinyl)propyl]sulfonyl}-4-piperidinyl)-5-(2-thienyl)-11 indole-7-carboxamide] | < 10
13 | NC(=O)c1cc(-c2cccs2)cc2c(C3CCN(S(=O)(=O)CCCNC4CCCC4)CC3)c[nH]c12 [Example 13, 3-(1-{[3-(cyclopentylamino)propyl]sulfonyl}-4-piperidinyl)-5-(2-thienyl)-1H-indole-7-carboxamide] | < 10
14 | NC(=O)c1cc(-c2cccs2)cc2c(C3CCN(S(=O)(=O)CCCN4CCC(O)CC4)CC3)c[nH]c12 [Example 14, 3-(1-{[3-(4-hydroxy-1-piperidinyl)propyl]sulfonyl}-4-piperidinyl)-5-(2-thienyl)-1-indole-7-carboxamide] | < 10
15 | NC(=O)c1cc(-c2cccs2)cc2c(C3CCN(S(=O)(=O)CCNC4CCCC4)CC3)c[nH]c12 [Example 15, 3-(1-{[2-(cyclopentylamino)ethyl]sulfonyl}-4-piperidinyl)-5-(2-thienyl)-1H-indole-7-carboxamide] | < 10
16 | NC(=O)c1cc(-c2ccsc2)cc2c(C3CCN(S(=O)(=O)CCN4CCCC4)CC3)c[nH]c12 [Example 16, 3-(1-{[2-(1-pyrrolidinyl)ethyl]sulfonyl}-4-piperidinyl)-5-(3-thienyl)-1H-indole-7-carboxamide] | < 10
17 | CN(C)CCS(=O)(=O)N1CCC(c2c[nH]c3c(C(N)=O)cc(-c4ccsc4)cc23)CC1 [Example 17, 3-(1-{[2-(dimethylamino)ethyl]sulfonyl}-4-piperidinyl)-5-(3-thienyl)-1H-indole-7-carboxamide] | < 10

Row | Structure (SMILES) | IC50 [µM]
18 | NC(=O)c1cc(-c2ccsc2)cc2c(C3CCN(S(=O)(=O)CCNC4CCCC4)CC3)c[nH]c12 [Example 18, 3-(1-{[2-(cyclopentylamino)ethyl]sulfonyl}-4-piperidinyl)-5-(3-thienyl)-11 indole-7-carboxamide] | < 10
19 | NC(=O)c1cc(-c2ccsc2)cc2c(C3CCN(S(=O)(=O)CCNC4CCC(O)CC4)CC3)c[nH]c12 (stereo not drawn) [Example 19, 3-[1-({2-[(4-hydroxycyclohexyl)amino]ethyl}sulfonyl)-4-piperidinyl]-5-(3-thienyl)-1H-indole-7-carboxamide] | < 10
20 | NC(=O)c1cc(-c2ccccc2)cc2c(C3CCN(S(=O)(=O)CCO)CC3)c[nH]c12 [Example 20, 3-{1-[(2-hydroxyethyl)sulfonyl]-4-piperidinyl}-5-phenyl-1H-indole-7-carboxamide] | < 10
21 | NC(=O)c1cc(-c2ccc(Cl)s2)cc2c(C3CCN(S(=O)(=O)CCCN4CCCC4)CC3)c[nH]c12 [Example 21, 5-(5-chloro-2-thienyl)-3-(1-{[3-(1-pyrrolidinyl)propyl]sulfonyl}-4-piperidinyl)-1H-indole-7-carboxamide] | < 10
22 | CNCCS(=O)(=O)N1CCC(c2c[nH]c3c(C(N)=O)cc(-c4ccccc4)cc23)CC1 [Example 22, 3-(1-{[2-(methylamino)ethyl]sulfonyl}-4-piperidinyl)-5-phenyl-1H-indole-7-carboxamide] | < 10
23 | NC(=O)c1cc(-c2ccc(CO)s2)cc2c(C3CCN(S(=O)(=O)CCCN4CCCC4)CC3)c[nH]c12 [Example 63, 5-[5-(hydroxymethyl)-2-thienyl]-3-(1-{[3-(1-pyrrolidinyl)propyl]sulfonyl}-4-piperidinyl)-1H-indole-7-carboxamide] | < 10
24 | NC(=O)c1cc(-c2ccc(CN3CCCC3)s2)cc2c(C3CCN(S(=O)(=O)CCCN4CCCC4)CC3)c[nH]c12 [Example 64, 5-[5-(1-pyrrolidinylmethyl)-2-thienyl]-3-(1-{[3-(1-pyrrolidinyl)propyl]sulfonyl}-4-piperidinyl)-1H-indole-7-carboxamide] | < 10
25 | CNCc1ccc(-c2cc(C(N)=O)c3[nH]cc(C4CCN(S(=O)(=O)CCCN5CCOCC5)CC4)c3c2)s1 [Example 65, 5-{5-[(methylamino)methyl]-2-thienyl}-3-(1-{[3-(4-morpholinyl)propyl]sulfonyl}-4-piperidinyl)-1H-indole-7-carboxamide] | < 10
26 | CCNCc1ccc(-c2cc(C(N)=O)c3[nH]cc(C4CCN(S(=O)(=O)CCCN5CCOCC5)CC4)c3c2)s1 [Example 66, 5-{5-[(ethylamino)methyl]-2-thienyl}-3-(1-{[3-(4-morpholinyl)propyl]sulfonyl}-4-piperidinyl)-1H-indole-7-carboxamide] | < 10
27 | CC(C)N(CCCS(=O)(=O)N1CCC(c2c[nH]c3c(C(N)=O)cc(-c4ccccc4)cc23)CC1)C(C)C [Example 67, 3-[1-({3-[bis(1-methylethyl)amino]propyl}sulfonyl)-4-piperidinyl]-5-phenyl-1H-indole-7-carboxamide] | < 10
28 | COCCS(=O)(=O)N1CCC(c2c[nH]c3c(C(N)=O)cc(-c4ccccc4)cc23)CC1 [Example 68, 3-(1-{[2-(methyloxy)ethyl]sulfonyl}-4-piperidinyl)-5-phenyl-1 indole-7-carboxamide] | < 10
29 | C[C@@H]1CC[C@@H](C)N1CCCS(=O)(=O)N1CCC(c2c[nH]c3c(C(N)=O)cc(-c4ccccc4)cc23)CC1 [Example 69, 3-[1-({3-[(2R,5R)-2,5-dimethyl-1-pyrrolidinyl]propyl}sulfonyl)-4-piperidinyl]-5-phenyl-1H-indole-7-carboxamide] | < 10
30 | CN1CCN(CCCS(=O)(=O)N2CCC(c3c[nH]c4c(C(N)=O)cc(-c5cccs5)cc34)CC2)CC1 [Example 70, 3-(1-{[3-(4-methyl-1-piperazinyl)propyl]sulfonyl}-4-piperidinyl)-5-(2-thienyl)-1H-indole-7-carboxamide] | < 10
31 | NC(=O)c1cc(-c2ccsc2)cc2c(C3CCN(S(=O)(=O)CCCN4CCC(O)CC4)CC3)c[nH]c12 [Example 71, 3-(1-{[3-(4-hydroxy-1-piperidinyl)propyl]sulfonyl}-4-piperidinyl)-5-(3-thienyl)-1H-indole-7-carboxamide] | < 10
32 | CN1CCN(CCCS(=O)(=O)N2CCC(c3c[nH]c4c(C(N)=O)cc(-c5ccsc5)cc34)CC2)CC1 [Example 72, 3-(1-{[3-(4-methyl-1-piperazinyl)propyl]sulfonyl}-4-piperidinyl)-5-(3-thienyl)-1H-indole-7-carboxamide] | < 10
33 | NC(=O)c1cc(-c2cccs2)cc2c(C3CCN(S(=O)(=O)CCCN4CCOCC4)CC3)c[nH]c12 [Example 73, 3-(1-{[3-(4-morpholinyl)propyl]sulfonyl}-4-piperidinyl)-5-(2-thienyl)-1H-indole-7-carboxamide] | < 10
